Entries after “also recorded” stand apart in the source; their conditions may differ.
How the values were obtained:
CK1ε = molecular target: T1, CK1ε (Homo sapiens, UniProt P49674); assay: In vitro kinase assay, CK1ε (Reaction Biology Corporation); type: biochemical; conditions: 10 μM ATP
T1 construct: Reaction Biology Corporation (contract assay)
Experimental: Compounds were tested in 10-dose IC50 mode with 3-fold serial dilution starting at 50 μM. […] Reactions were carried out at 10 μM ATP. Average and standard deviations of reactions carried out in triplicate are shown.
In vitro kinase assay to detect CK1 or FLT3 activity: CK1 and FLT3 assays as well as complete kinase profile of 296 kinases was performed by Reaction Biology Corporation. For FLT3 20 μM final Abltide was used, sequence: [[…]]. For CK1 (all isoforms) 20 μM CK1 tide was used, sequence: [KRRRAL[pS]VASLPGL] in a standard kinase assay with ^32P-ATP and purified kinase. Incorporation of ^32P-ATP into the peptide was measured after a filter-binding assay. In-house CK1d inhibition assays were performed using a standard homogenous time-resolved fluorescence resonance energy transfer (TR-FRET) format in 50 mM Hepes, pH 7.0, 2.5 mM MgCl2, 0.1 mg/ml bovine serum albumin, 1 mM DL-dithiothreitol, 0.01% Triton X-100 (all from Sigma-Aldrich). […] Assays were performed in the presence of 2 μL of compound at different (measured) concentrations, and reactions were stopped by adding 10 μL of 4 nM Eu-anti-p-Topo-IIa (PerkinElmer) in Lance Detection Buffer (Perkin Elmer). Upon excitation of the Eu-labeled antibody, energy is transferred to the acceptor dye resulting in the emission of detected light at 665 nm.

endogenous Wee1 = assay: Western blot of endogenous Wee1; type: cell-based; conditions: result in words
Experimental: (§1) The percentage of signal relative to the proteasome inhibitor MG132 is shown. […] A Western blot is shown of endogenous Wee1 or Skp1 (loading control) of HeLa cells incubated with 5 μM of indicated compounds for 24 hours. […] The 0 time point was set to 100%. […] The extent of degradation was measured as in FIG. D.

296 kinases = assay: Kinase profile of 296 kinases (Reaction Biology Corporation); type: biochemical; conditions: result in words
cyclin dependent kinases = assay: Kinase activity, cyclin dependent kinases; type: biochemical; conditions: result in words
Description: CNS neurogenesis requires Cdk1 activity regulated by the phosphatase Cdc25 and the tyrosine kinase Wee1[1]. Cdk1 activity decreases in normal adult neurons and is reactivated in neurological diseases such as Alzheimer's[2]. A major mechanism controlling Cdk1 activity in neurons is Wee1 degradation via the ubiquitin proteasome pathway. It was sought to identify pathways controlling neuronal Wee1 degradation using cerebellar granule cells and a reporter of Wee1 turnover, K328M-Wee1-Luciferase[4].

Luciferase = Luciferase alone control (PGL3 vector); type: cell-based; conditions: HeLa cells, cycloheximide, 5 μM; result in words
Experimental: as §1
5 μM of indicated compounds were incubated with K328M-Wee1-Luciferase or Luciferase expressing HeLa cells and the extent of stabilization measured after adding Brite-lite. MG132 was used as a positive control.
Similar assays have previously been described; PubChem AID 1807.

K328M-Wee1-luciferase = K328M-Wee1-luciferase degradation with cycloheximide; type: cell-based; conditions: HeLa cells, 5 μM, result in words
Experimental: as §1

T1 sequence (P49674 whole entry): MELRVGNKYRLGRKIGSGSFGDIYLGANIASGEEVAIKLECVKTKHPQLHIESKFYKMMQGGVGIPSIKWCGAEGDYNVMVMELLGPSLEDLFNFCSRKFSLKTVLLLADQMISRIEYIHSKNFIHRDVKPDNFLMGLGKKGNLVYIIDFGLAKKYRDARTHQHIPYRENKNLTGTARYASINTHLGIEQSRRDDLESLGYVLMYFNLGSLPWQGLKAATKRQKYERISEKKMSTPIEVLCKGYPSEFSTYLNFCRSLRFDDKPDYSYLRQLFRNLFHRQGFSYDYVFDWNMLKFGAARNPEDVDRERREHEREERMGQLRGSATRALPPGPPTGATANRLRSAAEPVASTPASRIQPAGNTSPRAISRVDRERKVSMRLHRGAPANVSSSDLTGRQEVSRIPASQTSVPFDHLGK

## c1ccc2[nH]c(CNc3nc(N4CCOCC4)nc4c3ncn4-c3ccsc3)nc2c1 [SR-653234]
CK1ε
  IC50: 100 nM
Endogenous Wee1
  steady-state levels of endogenous Wee1: increased the steady-state levels of endogenous Wee1
296 kinases
  selectivity among 296 kinases: highly selective for casein kinase
Cyclin dependent kinases
  activity toward cyclin dependent kinases: does not show any appreciable activity
Luciferase
  luciferase degradation: does not affect luciferase degradation
K328M-Wee1-luciferase
  K328M-Wee1-luciferase degradation: inhibited degradation of K328M-Wee1-luciferase; also recorded: inhibits K328M-Wee1-luciferase degradation

Source: patent US9493464B2, “Wee1 degradation inhibitors” (The Scripps Research Institute, priority 2012, dated 2016)
